In ChEMBL document CHEMBL4311969, “Polygala tenuifolia-Acori tatarinowii herbal pair as an inspiration for substituted cinnamic α-asaronol esters: Design, synthesis, anticonvulsant activity, and inhibition of lactate dehydrogenase study” (Eur J Med Chem, 2019):
Several values for one entry are separate records, joined by “and”; a condition that tells them apart may be missing. Equal values may be shown once. Activity calls are given as the source filed them. The calls are words filed in the database; no cut-off is given here.

Legend:
[1] = system: Mus musculus; assay: Anticonvulsant activity in Kunming mouse assessed as reduction in Sc3-MP-induced clonic seizure rate at 300 mg/kg, ip administered 0.5 hrs before Sc3-MP stimulation relative to control; format: functional; set-up: scale not given: the % may be the effect or the level left
[2] = system: Mus musculus; assay: Anticonvulsant activity in Kunming mouse assessed as reduction in Sc3-MP-induced tonic seizure rate at 300 mg/kg, ip administered 0.5 hrs before Sc3-MP stimulation relative to control; format: functional; set-up: scale not given: the % may be the effect or the level left
[3] = system: Mus musculus; assay: Anticonvulsant activity in Kunming mouse assessed as MES-induced hind limb extension at 100 mg/kg, ip administered 0. 5 to 2 hrs before MES stimulation; format: functional, organism-based
[4] = system: Mus musculus; assay: Anticonvulsant activity in Kunming mouse assessed as MES-induced hind limb extension at 50 mg/kg, ip administered 0.5 to 4 hrs before MES stimulation relative to control; format: functional
[5] = system: Mus musculus; assay: Anticonvulsant activity in Kunming mouse assessed as reduction in ScPTZ-induced seizure at 300 mg/kg, ip administered 0.25 to 2 hrs before ScPTZ stimulation relative to control; format: functional; set-up: scale not given: the % may be the effect or the level left
[6] = system: Mus musculus; assay: Anticonvulsant activity in Kunming mouse assessed as reduction in ScPTZ-induced seizure at 100 mg/kg, ip administered 0.25 to 2 hrs before ScPTZ stimulation relative to control; format: functional; set-up: scale not given: the % may be the effect or the level left
[7] = system: Mus musculus; assay: Anticonvulsant activity in Kunming mouse assessed as reduction in ScPTZ-induced seizure at 100 mg/kg, ip administered 0.25 and 1 hrs before ScPTZ stimulation relative to control; format: functional; set-up: scale not given: the % may be the effect or the level left
[8] = system: Mus musculus; assay: Anticonvulsant activity in Kunming mouse assessed as reduction in ScPTZ-induced tonic seizure rate at 300 mg/kg, ip administered 0.5 hrs before ScPTZ stimulation relative to control; format: functional; set-up: scale not given: the % may be the effect or the level left
[9] = system: Mus musculus; assay: Anticonvulsant activity in Kunming mouse assessed as reduction in ScPTZ-induced tonic seizure rate at 100 mg/kg, ip administered 0.5 hrs before ScPTZ stimulation relative to control; format: functional; set-up: scale not given: the % may be the effect or the level left
[10] = system: Mus musculus; assay: Anticonvulsant activity in Kunming mouse assessed as reduction in Sc3-MP-induced seizure at 300 mg/kg, ip administered 0.25 and 1 hrs before Sc3-MP stimulation relative to control; format: functional, organism-based
[11] = system: Mus musculus; assay: Anticonvulsant activity in Kunming mouse assessed as reduction in Sc3-MP-induced seizure at 300 mg/kg, ip administered 0.5 hrs before Sc3-MP stimulation relative to control; format: functional; set-up: scale not given: the % may be the effect or the level left
[12] = system: Mus musculus; assay: Anticonvulsant activity in ip dosed Kunming mouse assessed as MES-induced hind limb extension administered 0.5 hrs before MES stimulation; format: functional
[13] = system: Mus musculus; assay: Anticonvulsant activity in ip dosed Kunming mouse assessed as reduction in ScPTZ-induced seizure administered 0.5 hrs before ScPTZ stimulation; format: functional
[14] = system: Mus musculus; assay: Anticonvulsant activity in Kunming mouse assessed as reduction in Sc3-MP-induced seizure ip dosed measured at 0.5 hrs before Sc3-MP stimulation; format: functional
[15] = system: Mus musculus; assay: […] activity in ip dosed Kunming mouse assessed as reduction in formalin-induced paw licking administered 0.5 hrs before formalin stimulation; format: functional
[16] = Protective index, ratio of TD50 for neurotoxicity against ip dosed Kunming mouse assessed as time remained in rod measured at 0.5 hrs by rotarod test to ED50 for anticonvulsant activity in ip dosed Kunming mouse assessed as MES-induced hind limb extension administered 0.5 hrs; format: toxicity, organism-based; details: in vivo, read-out: PI
[17] = (§1) Protective index, ratio of TD50 for neurotoxicity against ip dosed Kunming mouse assessed as time remained in rod measured at 0.5 hrs by rotarod test to ED50 for anticonvulsant activity in ip dosed Kunming mouse assessed as reduction in Sc3-MP-induced seizure administered 0.5 hrs before Sc3-MP stimulation; format: toxicity, organism-based; details: in vivo, read-out: PI
[18] = as §1, with “formalin-induced paw licking” for “Sc3-MP-induced seizure”, “formalin” for “Sc3-MP”; format: toxicity, organism-based; details: in vivo, read-out: PI
[19] = organism: Homo sapiens; assay: Inhibition of human LDH1 at 0.5 mM using sodium pyruvate as substrate by UV-VIS spectrophotometry method relative to control
[20] = organism: Homo sapiens; assay: Inhibition of human LDH1 at 0.5 mM using sodium pyruvate as substrate measured for 60 sec for every 5 mins by LC/MS-MS analysis
[21] = Clearance in Sprague-Dawley rat at 20 mg/kg, iv measured upto 480 mins by LC-MS/MS analysis; format: ADME, organism-based; details: in vivo
[22] = Volume of distribution at steady state in Sprague-Dawley rat at 20 mg/kg, iv measured upto 480 mins by LC-MS/MS analysis; format: ADME, organism-based; details: in vivo, read-out: Vdss
[23] = Cmax in Sprague-Dawley rat at 20 mg/kg, iv measured upto 480 mins by LC-MS/MS analysis; format: ADME, organism-based; set-up: dose 20 mg/kg, route intravenous; details: in vivo
[24] = AUC in Sprague-Dawley rat at 20 mg/kg, iv measured upto 480 mins by LC-MS/MS analysis; format: ADME, organism-based; set-up: time < 8 hr, dose 20 mg/kg, route intravenous; details: in vivo
[25] = Half life in Sprague-Dawley rat at 20 mg/kg, po measured upto 480 mins by LC-MS/MS analysis; format: ADME, organism-based; details: in vivo
[26] = Tmax in Sprague-Dawley rat at 20 mg/kg, po measured upto 480 mins by LC-MS/MS analysis; format: ADME, organism-based; details: in vivo
[27] = Clearance in Sprague-Dawley rat at 20 mg/kg, po measured upto 480 mins by LC-MS/MS analysis; format: ADME, organism-based; details: in vivo
[28] = Volume of distribution at steady state in Sprague-Dawley rat at 20 mg/kg, po measured upto 480 mins by LC-MS/MS analysis; format: ADME, organism-based; details: in vivo, 8 h
[29] = Oral bioavailability in Sprague-Dawley rat at 20 mg/kg measured upto 480 mins by LC-MS/MS analysis; format: ADME, organism-based; details: in vivo
[30] = Half life in Sprague-Dawley rat at 50 mg/kg, po measured upto 480 mins by LC-MS/MS analysis; format: ADME, organism-based; details: in vivo
[31] = Clearance in Sprague-Dawley rat at 50 mg/kg, po measured upto 480 mins by LC-MS/MS analysis; format: ADME, organism-based; details: in vivo
[32] = Volume of distribution at steady state in Sprague-Dawley rat at 50 mg/kg, po measured upto 480 mins by LC-MS/MS analysis; format: ADME, organism-based; details: in vivo, 8 h
[33] = Cmax in Sprague-Dawley rat at 50 mg/kg, po measured upto 480 mins by LC-MS/MS analysis; format: ADME, organism-based; set-up: dose 50 mg/kg, route oral; details: in vivo
[34] = AUC in Sprague-Dawley rat at 50 mg/kg, po measured upto 480 mins by LC-MS/MS analysis; format: ADME, organism-based; set-up: time < 8 hr, dose 50 mg/kg, route oral; details: in vivo
[35] = Oral bioavailability in Sprague-Dawley rat at 50 mg/kg measured upto 480 mins by LC-MS/MS analysis; format: ADME, organism-based; details: in vivo
[36] = Half life in Sprague-Dawley rat at 100 mg/kg, po measured upto 480 mins by LC-MS/MS analysis; format: ADME, organism-based; details: in vivo
[37] = Tmax in Sprague-Dawley rat at 100 mg/kg, po measured upto 480 mins by LC-MS/MS analysis; format: ADME, organism-based; details: in vivo
[38] = Clearance in Sprague-Dawley rat at 100 mg/kg, po measured upto 480 mins by LC-MS/MS analysis; format: ADME, organism-based; details: in vivo
[39] = Volume of distribution at steady state in Sprague-Dawley rat at 100 mg/kg, po measured upto 480 mins by LC-MS/MS analysis; format: ADME, organism-based; details: in vivo, 8 h
[40] = AUC in Sprague-Dawley rat at 100 mg/kg, po measured upto 480 mins by LC-MS/MS analysis; format: ADME, organism-based; set-up: dose 100 mg/kg, time < 8 hr, route oral; details: in vivo
[41] = system: Mus musculus; assay: Anticonvulsant activity in Kunming mouse assessed as MES-induced hind limb extension at 100 mg/kg, ip administered 0. 5 to 4 hrs before MES stimulation relative to control; format: functional

Which results are given for COc1cc(OC)c(OC)cc1/C=C/COC(=O)/C=C/c1c(OC)cc(OC)c(OC)c1OC?
Activity [1]: 100%; Activity [2]: 50%; Activity [3]: Active; Activity [4]: 50%; Activity [5]: 50%; Activity [6]: 25%; Activity [7]: 75%; Activity [8]: 25%; Activity [9]: 25%; Activity [10]: Active; Activity [11]: 50%; ED50 [12]: 71.4 µmol/kg and 33.9 mg/kg; ED50 [13]: 154 mg/kg and 326 µmol/kg; ED50 [14]: 203 mg/kg and 428 µmol/kg; ED50 [15]: 46.3 mg/kg and 97.6 µmol/kg; selectivity ratio at 0.5 h [16]: 27.7; selectivity ratio at 0.5 h [17]: 4.6; selectivity ratio at 0.5 h [18]: 21.6; inhibition [19]: 21%; inhibition [20]: 21%; clearance [21]: 140 mL/min/kg; Vd [22]: 2.14 L/kg; Cmax [23]: 6480 ng/mL; AUC at 8 h [24]: 3000 ng·h/mL; half-life [25]: 57.9 min; Tmax [26]: 37.1 min; CL/F [27]: 380 mL/min/kg; Vdss [28]: 9.86 L/kg; bioavailability [29]: 43.4%; half-life [30]: 59.2 min; CL/F [31]: 450 mL/min/kg; Vdss [32]: 10.17 L/kg; Cmax [33]: 2040 ng/mL; AUC at 8 h [34]: 2610 ng·h/mL; bioavailability [35]: 34.8%; half-life [36]: 58.5 min; Tmax [37]: 38.8 min; CL/F [38]: 520 mL/min/kg; Vdss [39]: 11.26 L/kg; AUC at 8 h [40]: 5480 ng·h/mL; Activity [41]: 25 - 100%

For COc1cc(OC)c(OC)cc1/C=C/COC(=O)/C=C/c1cc(OC)c(OC)c(OC)c1OC, which Activity [1] is on record?
The Activity was 100%.

And the Activity [2]?
Its Activity is 50%.

And the Activity [3]?
The Activity was “Active”.

What about the Activity [4] of the same compound?
The Activity was 50%.

What about the Activity [5] of the same compound?
Its Activity is 50%.

And the Activity [6]?
The Activity was 25%.

What about the Activity [7] of the same compound?
The Activity was 75%.

What about the Activity [8] of the same compound?
The Activity was 0%.

What about the Activity [9] of the same compound?
The Activity was 75%.

And the Activity [10]?
The Activity was “Active”.

And the Activity [11]?
The Activity was 50%.

What about the ED50 [12] of the same compound?
Its ED50 is 65.1 µmol/kg and 30.9 mg/kg.

What about the ED50 [13] of the same compound?
Its ED50 is 155 mg/kg and 327 µmol/kg.

And the ED50 [14]?
The ED50 was > 200 mg/kg and > 422 µmol/kg.

What about the ED50 [15] of the same compound?
Its ED50 is 42.2 mg/kg and 89 µmol/kg.

What about the selectivity ratio at 0.5 h [16] of the same compound?
Its selectivity ratio at 0.5 h is over 32.4.

What about the selectivity ratio at 0.5 h [17] of the same compound?
The selectivity ratio at 0.5 h was over 5.3.

And the selectivity ratio at 0.5 h [18]?
The selectivity ratio at 0.5 h was 23.7.

And the inhibition [19]?
The inhibition was 18%.

What about the inhibition [20] of the same compound?
The inhibition was 18%.

And the clearance [21]?
Its clearance is 160 mL/min/kg.

What about the Vd [22] of the same compound?
The Vd was 1.98 L/kg.

And the Cmax [23]?
Its Cmax is 6220 ng/mL.

And the AUC at 8 h [24]?
The AUC at 8 h was 2940 ng·h/mL.

And the half-life [25]?
Its half-life is 55.8 min.

What about the Tmax [26] of the same compound?
The Tmax was 35.2 min.

What about the CL/F [27] of the same compound?
The CL/F was 390 mL/min/kg.

What about the Vdss [28] of the same compound?
Its Vdss is 8.94 L/kg.

And the bioavailability [29]?
The bioavailability was 41.3%.

And the half-life [30]?
The half-life was 58.5 min.

And the CL/F [31]?
Its CL/F is 480 mL/min/kg.

And the Vdss [32]?
Its Vdss is 9.26 L/kg.

And the Cmax [33]?
Its Cmax is 1890 ng/mL.

And the AUC at 8 h [34]?
The AUC at 8 h was 2310 ng·h/mL.

And the bioavailability [35]?
Its bioavailability is 31.4%.

What about the half-life [36] of the same compound?
Its half-life is 57 min.

What about the Tmax [37] of the same compound?
Its Tmax is 36.2 min.

And the CL/F [38]?
Its CL/F is 560 mL/min/kg.

And the Vdss [39]?
Its Vdss is 9.98 L/kg.

And the AUC at 8 h [40]?
Its AUC at 8 h is 5110 ng·h/mL.

And the Activity [41]?
The Activity was 25 - 100%.
